From ChEMBL document CHEMBL1135060, “Design and synthesis of peptide-based carboxylic acid-containing transition-state inhibitors of human neutrophil elastase” (Bioorg Med Chem Lett, 2002)

How the values were obtained:
[1] = target: T1, Neutrophil elastase (Homo sapiens, UniProt P08246); experiment: In vitro inhibition of the human neutrophil elastase-catalyzed hydrolysis of the synthetic substrate Suc-Ala-Pro-Ala-MCA
T1 sequence (P08246 whole entry): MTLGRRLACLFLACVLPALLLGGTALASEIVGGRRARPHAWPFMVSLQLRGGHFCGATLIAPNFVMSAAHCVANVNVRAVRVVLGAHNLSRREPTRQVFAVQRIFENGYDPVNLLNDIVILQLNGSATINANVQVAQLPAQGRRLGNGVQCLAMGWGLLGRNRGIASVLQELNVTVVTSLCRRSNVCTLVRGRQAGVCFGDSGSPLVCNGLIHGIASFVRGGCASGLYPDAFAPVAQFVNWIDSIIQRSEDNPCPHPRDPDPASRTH

[2] = system: Cricetinae gen. sp.; experiment: The compound was evaluated for its ability to inhibit the human neutrophil elastase-induced lung hemorrhage in hamster by intravenous bolus administration of 10 mg/kg dose; type: functional, Cricetulus griseus
[3] = system: Cricetinae gen. sp.; experiment: The compound was evaluated for its ability to inhibit the human neutrophil elastase-induced lung hemorrhage in hamster by intravenous bolus administration of 30 mg/kg dose; type: functional, Cricetulus griseus
[4] = system: Cricetinae gen. sp.; experiment: The compound was evaluated for its ability to inhibit the human neutrophil elastase-induced lung hemorrhage in hamster by intravenous bolus administration of 30 mg/Kg dose; type: functional, Cricetulus griseus
[5] = system: Cricetinae gen. sp.; experiment: The compound was evaluated for its ability to inhibit the human neutrophil elastase-induced lung hemorrhage in hamster by intravenous bolus administration of 10 mg/Kg dose; type: functional, Cricetulus griseus
[6] = system: Cricetinae gen. sp.; experiment: The compound was evaluated for its ability to inhibit the human neutrophil elastase-induced lung hemorrhage in hamster by intravenous bolus administration of 100 mg/Kg dose; type: functional, Cricetulus griseus
[7] = system: Cricetinae gen. sp.; experiment: The compound was evaluated for its ability to inhibit the HNE-induced lung hemorrhage in hamster by intravenous bolus administration of 10 mg/Kg dose; type: functional, Cricetulus griseus

| IC50 [1] | Compound | inhibition in vivo at 30 mg/kg [4] | other results |
| --- | --- | --- | --- |
| > 10000 nM | CC(C)[C@H](NC(=O)OCc1ccccc1)C(=O)c1nc2c(OCc3cccc(C(F)(F)F)c3)cccc2o1 |  |  |
| 33 nM | CC(C)[C@H](NC(=O)[C@@H]1CCCN1C(=O)[C@@H](NC(=O)CNC(=O)c1ccc(OCC(=O)O)cc1)C(C)C)C(=O)c1nc2ccccc2o1 |  | inhibition in vivo at 10 mg/kg [2]: 46%; inhibition in vivo at 30 mg/kg [3]: 99% |
| 7.2 nM | CC(C)[C@H](NC(=O)[C@@H]1CCCN1C(=O)[C@@H](NC(=O)COc1ccccc1OCC(=O)O)C(C)C)C(=O)c1nc2ccccc2o1 | 48% | inhibition in vivo at 10 mg/kg [5]: 37%; inhibition in vivo at 100 mg/kg [6]: 90% |
| 8.9 nM | CC(C)[C@H](NC(=O)[C@@H]1CCCN1C(=O)[C@@H](NC(=O)COc1ccc(OCC(=O)O)cc1)C(C)C)C(=O)c1nc2c(OC(=O)C(C)(C)C)cccc2o1 | 73% | inhibition in vivo at 100 mg/kg [6]: 99% |
| 130 nM | CC(C)[C@H](NC(=O)COc1ccc(OCC(=O)O)cc1)C(=O)c1nc2c(OC(=O)C(C)(C)C)cccc2o1 | 13% | inhibition in vivo at 100 mg/kg [6]: 74% |
| 280 nM | CC(C)[C@H](NC(=O)[C@@H]1CCCN1C(=O)[C@@H](NC(=O)N[C@H](C)C(=O)O)C(C)C)C(=O)c1nc2ccccc2o1 | 39% |  |
| > 10000 nM | CC(C)[C@H](NC(=O)OCc1ccccc1)C(=O)c1nc2ccccc2o1 |  |  |
| > 10000 nM | CC(C)[C@H](NC(=O)OCc1ccccc1)C(=O)c1nc2c(OCC(=O)O)cccc2o1 |  |  |
| 7.4 nM | CC(C)[C@H](NC(=O)[C@@H]1CCCN1C(=O)[C@@H](NC(=O)c1ccc(OCC(=O)O)cc1)C(C)C)C(=O)c1nc2ccccc2o1 | 60% | inhibition in vivo at 10 mg/kg [5]: 15% |
| > 10000 nM | COC(=O)COc1cccc2oc(C(=O)[C@@H](NC(=O)OCc3ccccc3)C(C)C)nc12 |  |  |
| > 10000 nM | CC(C)[C@H](NC(=O)OCc1ccccc1)C(=O)c1nc2c(OCC(N)=O)cccc2o1 |  |  |
| 450 nM | CC(C)[C@H](NC(=O)OCc1ccccc1)C(=O)c1nc2c(OC(=O)C(C)(C)C)cccc2o1 |  |  |
| 7800 nM | CC(C)CCOc1cccc2oc(C(=O)[C@@H](NC(=O)OCc3ccccc3)C(C)C)nc12 |  |  |
| 290 nM | CC(C)CCOc1cccc2oc(C(=O)[C@@H](NC(=O)[C@H]3CCCN3C(=O)COc3ccc(OCC(=O)O)cc3)C(C)C)nc12 | -16% | inhibition in vivo at 100 mg/kg [6]: 99% |
| > 10000 nM | CCCCC(Oc1cccc2oc(C(=O)[C@@H](NC(=O)OCc3ccccc3)C(C)C)nc12)c1ccccc1 (stereo not given in full) |  |  |
| > 10000 nM | CCCCCOc1cccc2oc(C(=O)[C@@H](NC(=O)OCc3ccccc3)C(C)C)nc12 |  |  |
|  | CC(C)[C@H](NC(=O)[C@@H]1CCCN1C(=O)[C@H](NC(=O)COc1ccc(OCC(=O)O)cc1)C(C)C)C(=O)c1nc2ccccc2o1 | 56% | inhibition in vivo at 100 mg/kg [6]: 98% |
| > 10000 nM | CC(C)[C@H](NC(=O)OCc1ccccc1)C(=O)c1nc2c(O)cccc2o1 |  |  |
| 3.5 nM | CC(C)[C@H](NC(=O)[C@@H]1CCCN1C(=O)[C@@H](NC(=O)COc1ccc(SCC(C)(C)C(=O)O)cc1)C(C)C)C(=O)c1nc2ccccc2o1 |  | inhibition in vivo at 10 mg/kg [5]: 30%; inhibition in vivo at 30 mg/kg [3]: 86%; inhibition in vivo at 100 mg/kg [6]: 99% |
| > 10000 nM | CC(C)[C@H](NC(=O)OCc1ccccc1)C(=O)c1nc2c(OCCN(C)C)cccc2o1 |  |  |
| 66 nM | CC(C)[C@H](NC(=O)[C@@H]1CCCN1C(=O)[C@@H](NC(=O)CCC(=O)O)C(C)C)C(=O)c1nc2ccccc2o1 | 61% |  |
| 13 nM | CC(C)[C@H](NC(=O)[C@@H]1CCCN1C(=O)[C@@H](NC(=O)COC(=O)c1ccc(OCC(=O)O)cc1)C(C)C)C(=O)c1nc2ccccc2o1 | 75% | inhibition in vivo at 10 mg/kg [7]: 12% |
| > 10000 nM | CC(C)[C@H](NC(=O)OCc1ccccc1)C(=O)c1nc2c(OCc3ccccc3)cccc2o1 |  |  |
| 230 nM | CC(C)[C@H](NC(=O)[C@H]1CCCN1C(=O)COc1ccc(OCC(=O)O)cc1)C(=O)c1nc2c(OC(=O)C(C)(C)C)cccc2o1 | 66% | inhibition in vivo at 100 mg/kg [6]: 96% |
| 72 nM | CC(C)[C@H](NC(=O)[C@@H]1CCCN1C(=O)[C@@H](NC(=O)/C=C/C(=O)O)C(C)C)C(=O)c1nc2ccccc2o1 |  |  |
| > 10000 nM | CCOc1cccc2oc(C(=O)[C@@H](NC(=O)OCc3ccccc3)C(C)C)nc12 |  |  |
| > 10000 nM | CC(C)=CCOc1cccc2oc(C(=O)[C@@H](NC(=O)OCc3ccccc3)C(C)C)nc12 |  |  |
